Measurements taken from patent US20230115945A1, “AMINOPYRIMIDINE COMPOUNDS” (TYRA BIOSCIENCES, INC., priority 2019, published 2023).

How the values were obtained:
FGFR3 = target: T1, FGFR3 (Homo sapiens, UniProt P22607); assay: Kinase binding assay (Kd), FGFR3; conditions: 11-point 3-fold dilution, qPCR readout
T1 construct: made in house; host or cells: E. coli host derived from BL21, infected with T7 phage
How it was run: (§1)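 Kinase levels in bead eluates were read by qPCR after test compounds competed with an immobilized affinity ligand for T7 phage-expressed kinase. Binding ran 1 h at room temperature, and Kd values were fitted from 11-point dose–response curves with Hill slope set to −1.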

FGFR1 = target: T2, FGFR1 (Homo sapiens, UniProt P11362); assay: Kinase binding assay (Kd), FGFR1; conditions: 11-point 3-fold dilution, qPCR readout
T2 construct: made in house; host or cells: E. coli host derived from BL21, infected with T7 phage
T2 sequence (P11362 22-822): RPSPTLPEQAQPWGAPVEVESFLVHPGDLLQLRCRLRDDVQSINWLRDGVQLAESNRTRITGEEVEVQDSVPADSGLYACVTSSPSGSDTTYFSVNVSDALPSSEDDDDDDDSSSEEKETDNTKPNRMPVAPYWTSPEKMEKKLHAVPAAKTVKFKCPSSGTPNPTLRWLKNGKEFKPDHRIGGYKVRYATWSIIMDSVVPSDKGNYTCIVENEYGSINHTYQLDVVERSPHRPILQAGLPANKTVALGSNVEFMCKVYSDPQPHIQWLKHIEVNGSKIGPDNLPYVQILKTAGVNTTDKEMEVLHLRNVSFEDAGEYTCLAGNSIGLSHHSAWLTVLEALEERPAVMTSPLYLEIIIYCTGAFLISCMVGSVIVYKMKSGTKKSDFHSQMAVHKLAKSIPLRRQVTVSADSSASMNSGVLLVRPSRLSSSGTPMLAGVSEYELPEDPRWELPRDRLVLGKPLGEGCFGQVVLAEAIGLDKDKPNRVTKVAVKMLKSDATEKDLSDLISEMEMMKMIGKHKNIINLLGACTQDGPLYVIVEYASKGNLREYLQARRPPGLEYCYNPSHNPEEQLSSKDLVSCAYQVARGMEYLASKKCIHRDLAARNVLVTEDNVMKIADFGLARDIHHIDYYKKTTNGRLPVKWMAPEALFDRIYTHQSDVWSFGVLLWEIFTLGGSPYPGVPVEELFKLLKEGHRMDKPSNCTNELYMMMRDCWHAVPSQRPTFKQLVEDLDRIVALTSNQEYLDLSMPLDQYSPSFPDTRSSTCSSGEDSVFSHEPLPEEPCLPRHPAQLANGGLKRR
How it was run: as §1

FGFR4 = target: T3, FGFR4 (Homo sapiens, UniProt P22455); assay: Kinase binding assay (Kd), FGFR4; conditions: 11-point 3-fold dilution, qPCR readout
T3 construct: made in house; host or cells: E. coli host derived from BL21, infected with T7 phage
T3 sequence (P22455 22-802): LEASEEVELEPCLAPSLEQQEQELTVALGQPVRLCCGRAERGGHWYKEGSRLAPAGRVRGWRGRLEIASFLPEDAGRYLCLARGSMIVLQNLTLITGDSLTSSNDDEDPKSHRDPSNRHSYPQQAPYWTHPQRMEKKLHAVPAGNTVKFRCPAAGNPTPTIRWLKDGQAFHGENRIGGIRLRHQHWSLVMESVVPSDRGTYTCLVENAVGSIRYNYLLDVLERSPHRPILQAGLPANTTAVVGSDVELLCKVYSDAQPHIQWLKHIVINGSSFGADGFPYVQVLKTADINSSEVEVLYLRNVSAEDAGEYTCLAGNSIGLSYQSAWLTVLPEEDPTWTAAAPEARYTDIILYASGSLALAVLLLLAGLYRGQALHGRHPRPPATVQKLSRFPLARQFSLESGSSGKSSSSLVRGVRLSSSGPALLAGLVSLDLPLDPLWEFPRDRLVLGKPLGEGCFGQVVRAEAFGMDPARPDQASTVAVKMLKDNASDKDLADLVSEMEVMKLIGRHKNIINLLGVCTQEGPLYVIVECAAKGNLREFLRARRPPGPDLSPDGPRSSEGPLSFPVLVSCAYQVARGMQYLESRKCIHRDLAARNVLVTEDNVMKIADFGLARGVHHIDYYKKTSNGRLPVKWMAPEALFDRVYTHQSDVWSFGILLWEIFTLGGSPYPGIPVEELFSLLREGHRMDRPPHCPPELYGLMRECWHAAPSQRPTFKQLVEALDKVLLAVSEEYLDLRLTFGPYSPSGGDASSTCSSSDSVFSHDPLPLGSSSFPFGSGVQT
How it was run: as §1

[1] = test system: SNU-16 cells (Gastric Carcinoma, FGFR2 amplification); assay: Cancer cell line cell viability assay, SNU-16; format: cell-based; conditions: Homo sapiens, 72 hours, Cell Titer-Glo 2.0, read-out: Cancer Cell Viability Assays SNU-16 (IC50 nM)
Excerpt: (§2) [table] To detect the change of intracellular ATP by Cell Titer-Glo® and to evaluate the inhibitory effect of the compounds on cancer cell lines by determining the in vitro IC50 value of the compounds. Cell Titer-Glo® 2.0 Luminescent cell viability assay reagent was purchased from Promega (Madison, Wis.). RT112/84, SNU-16, and KG-1 cell lines were purchased from American Type Culture Collection (Manassas, Va.). UM-UC-14 cell line was purchased from Sigma (St. Louis, Mo.). RT112/84, UM-UC-14, SNU-16, and KG-1 cells were cultured in RPMI1640 media supplemented with 10% fetal bovine serum. Cultures were maintained at 37° C. in a humidified atmosphere of 5% CO2 and 95% air. Cell Viability Assay Procedure: Cells were plated in 96-well clear bottom/white plates (Corning #3903) at 10,000 cells/well in 100 μl of media, incubated overnight. The next day, test compound DMSO stock solutions were made at 10 mM and 2 μM final concentration. Compounds were then added to cells in a 9-dose, […] dilution series starting at 30 μM with an HP 300e Digital Dispenser (each dose was applied in triplicate). DMSO was backfilled to each well up to 301 nL total volume of test compound+DMSO, and a total of 301 nL DMSO was added to a control/no test compound well in triplicate. The cells in cell culture plates were incubated with the compounds at 37° C. and 5% CO2 for 72 hours. Then 50 μl of Cell Titer Glo 2.0 reagent was added to each well of the cell culture plates. The contents were covered from light and mixed on an orbital shaker at room temperature for 10 min. Luminescence was recorded by a Synergy H1 Microplate Reader (Biotek, Winooski, Vt.). Cells were assessed as a percentage of DMSO only treated control cells. Curves were plotted and IC50 values were calculated using the GraphPad Prism 8 program based on a sigmoidal dose-response equation (4 parameter).

[2] = test system: RT112/84 cells (Bladder Cancer, FGFR3-TACC3 fusion); assay: Cancer cell line cell viability assay, RT112/84; format: cell-based; conditions: Homo sapiens, 72 hours, Cell Titer-Glo 2.0, read-out: Cancer Cell Viability Assays RT112/84 (IC50 nM)
Excerpt: as §2

FGFR2 = target: T4, FGFR2 (Homo sapiens, UniProt P21802); assay: Kinase binding assay (Kd), FGFR2; conditions: 11-point 3-fold dilution, qPCR readout
T4 construct: made in house; host or cells: E. coli host derived from BL21, infected with T7 phage
T4 sequence (P21802 22-821): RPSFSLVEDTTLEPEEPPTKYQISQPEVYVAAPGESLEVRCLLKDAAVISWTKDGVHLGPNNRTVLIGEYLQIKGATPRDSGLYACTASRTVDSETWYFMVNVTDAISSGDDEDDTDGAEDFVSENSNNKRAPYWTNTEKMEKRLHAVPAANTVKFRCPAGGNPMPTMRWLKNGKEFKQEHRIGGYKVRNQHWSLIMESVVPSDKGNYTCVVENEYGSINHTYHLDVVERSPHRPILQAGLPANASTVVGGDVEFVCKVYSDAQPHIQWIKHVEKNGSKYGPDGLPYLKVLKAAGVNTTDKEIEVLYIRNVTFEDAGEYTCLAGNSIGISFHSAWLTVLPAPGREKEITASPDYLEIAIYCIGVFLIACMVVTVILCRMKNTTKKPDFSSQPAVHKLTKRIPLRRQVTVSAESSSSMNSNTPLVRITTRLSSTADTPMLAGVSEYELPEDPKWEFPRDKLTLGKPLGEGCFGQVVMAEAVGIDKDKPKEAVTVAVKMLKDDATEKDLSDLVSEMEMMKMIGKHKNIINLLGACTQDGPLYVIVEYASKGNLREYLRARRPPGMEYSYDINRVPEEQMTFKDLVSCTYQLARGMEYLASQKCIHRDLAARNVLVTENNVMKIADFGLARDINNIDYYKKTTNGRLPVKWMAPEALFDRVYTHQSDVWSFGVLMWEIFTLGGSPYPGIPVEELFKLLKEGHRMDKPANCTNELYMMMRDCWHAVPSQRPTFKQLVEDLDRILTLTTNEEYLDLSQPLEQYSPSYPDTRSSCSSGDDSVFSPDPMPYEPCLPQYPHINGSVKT
How it was run: as §1

FGFR3 (V555M) = target: T5, FGFR3 (V555M) (Homo sapiens, UniProt P22607, V555M); assay: Kinase binding assay (Kd), FGFR3 (V555M); conditions: 11-point 3-fold dilution, qPCR readout
T5 construct: made in house; host or cells: E. coli host derived from BL21, infected with T7 phage
T5 sequence (P22607 23-806 V555M): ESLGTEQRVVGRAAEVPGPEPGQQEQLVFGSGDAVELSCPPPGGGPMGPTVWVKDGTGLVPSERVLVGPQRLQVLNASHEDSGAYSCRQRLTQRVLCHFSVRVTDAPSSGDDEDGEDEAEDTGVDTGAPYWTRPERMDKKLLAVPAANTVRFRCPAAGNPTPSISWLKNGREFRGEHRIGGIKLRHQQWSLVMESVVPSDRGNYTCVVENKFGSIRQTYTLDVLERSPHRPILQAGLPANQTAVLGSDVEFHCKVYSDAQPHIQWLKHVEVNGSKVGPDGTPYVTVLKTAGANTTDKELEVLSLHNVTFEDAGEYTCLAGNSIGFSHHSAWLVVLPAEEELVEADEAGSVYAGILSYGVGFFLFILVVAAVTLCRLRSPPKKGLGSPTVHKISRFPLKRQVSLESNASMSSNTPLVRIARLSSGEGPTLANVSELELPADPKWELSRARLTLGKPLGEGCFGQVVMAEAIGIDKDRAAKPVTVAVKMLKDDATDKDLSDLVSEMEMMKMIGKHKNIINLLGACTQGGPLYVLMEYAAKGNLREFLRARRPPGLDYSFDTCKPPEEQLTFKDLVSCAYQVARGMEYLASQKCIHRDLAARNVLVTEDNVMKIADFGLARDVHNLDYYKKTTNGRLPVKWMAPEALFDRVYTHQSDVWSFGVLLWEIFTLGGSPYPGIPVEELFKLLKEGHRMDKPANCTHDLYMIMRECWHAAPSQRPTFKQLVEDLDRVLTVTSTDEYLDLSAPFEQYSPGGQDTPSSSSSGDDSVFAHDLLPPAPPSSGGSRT
How it was run: as §1

T1 sequence (P22607 23-806): as the sequence (P22607 23-806 V555M) above, with M533V counted along it

Compound	Kd (FGFR3)	Kd (FGFR1)	Kd (FGFR4)	IC50 [1]	IC50 [2]	Kd (FGFR2)	Kd (FGFR3 (V555M))
CC(C)Oc1cc(N=S(C)(C)=O)ccc1Nc1ncc(Cl)c(-c2c[nH]c3ccccc23)n1 [Example 3, 5-chloro-N-[4-[[dimethyl(oxo)-λ^6-sulfanylidene]amino]-2-isopropoxy-phenyl]-4-(1H-indol-3-yl)pyrimidin-2-amine]	4700 nM	4500 nM	290 nM	73 nM	100 nM	11000 nM	–
Cc1cnc(Nc2ccc(N=S(C)(C)=O)nc2)nc1-c1c[nH]c2ccccc12 [Example 23, N-[6-[[dimethyl(oxo)-λ^6-sulfanylidene]amino]-3-pyridyl]-4-(1H-indol-3-yl)-5-methyl-pyrimidin-2-amine]	12 nM	8 nM	130 nM	132 nM	118 nM	6 nM	1 nM
Cc1cc(Nc2ncc(C)c(-c3c[nH]c4ccccc34)n2)ccc1N=S(C)(C)=O [Example 24, N-[4-[[dimethyl(oxo)-λ^6-sulfanylidene]amino]-3-methyl-phenyl]-4-(1H-indol-3-yl)-5-methyl-pyrimidin-2-amine]	10 nM	4 nM	87 nM	60 nM	33 nM	7 nM	1 nM
Cc1cnc(Nc2ccc(N=S(C)(C)=O)c(Cl)c2)nc1-c1c[nH]c2ccccc12 [Example 25, N-[3-chloro-4-[[dimethyl(oxo)-λ^6-sulfanylidene]amino]phenyl]-4-(1H-indol-3-yl)-5-methyl-pyrimidin-2-amine]	13 nM	7 nM	89 nM	117 nM	63 nM	9 nM	2 nM
COc1cc(N=S2(=O)CCN(C)CC2)ccc1Nc1ncc(Cl)c(-c2c[nH]c3ccccc23)n1 [Example 38, 5-Chloro-4-(1H-indol-3-yl)-N-[2-methoxy-4-[(4-methyl-1-oxo-1,4-thiazinan-1-ylidene)-amino]phenyl]pyrimidin-2-amine]	34 nM	25 nM	26 nM	130 nM	119 nM	92 nM	3 nM
Cc1cnc(Nc2ccc(N=S3(=O)CCN(C)CC3)cc2)nc1-c1c[nH]c2ccccc12 [Example 49, 4-(1H-Indol-3-yl)-5-methyl-N-[4-[(4-methyl-1-oxo-1,4-thiazinan-1-ylidene)amino]-phenyl]pyrimidin-2-amine]	8 nM	8 nM	120 nM	189 nM	78 nM	4 nM	1 nM
Cc1cnc(Nc2ccc(S(=N)(=O)C3CC3)cc2)nc1-c1c[nH]c2ccccc12 (stereo not shown) [Example 51, N-[4-(Cyclopropyl-sulfonimidoyl)-phenyl]-4-(1H-indol-3-yl)-5-methyl-pyrimidin-2-amine]	18 nM	10 nM	130 nM	45 nM	48 nM	6 nM	3 nM
CS(=N)(=O)c1ccc(Nc2ncc(Cl)c(-c3c[nH]c4ccccc34)n2)cc1 (stereo not shown) [Example 52, 5-Chloro-4-(1H-indol-3-yl)-N-[4-(methylsulfonimidoyl)-phenyl]pyrimidin-2-amine]	24 nM	27 nM	390 nM	83 nM	76 nM	9 nM	6 nM
N=S1(=O)CCN(c2ccc(Nc3ncc(Cl)c(-c4c[nH]c5ccccc45)n3)cc2)CC1 [Example 53, 5-Chloro-N-[4-(1-imino-1-oxo-1,4-thiazinan-4-yl)phenyl]-4-(1H-indol-3-yl)pyrimidin-2-amine]	11 nM	5 nM	74 nM	31 nM	22 nM	3 nM	1 nM
Cc1cnc(Nc2ccc(N3CCS(=N)(=O)CC3)cc2)nc1-c1c[nH]c2ccccc12 [Example 54, N-[4-(1-Imino-1-oxo-1,4-thiazinan-4-yl)phenyl]-4-(1H-indol-3-yl)-5-methyl-pyrimidin-2-amine]	13 nM	10 nM	100 nM	44 nM	33 nM	7 nM	2 nM

More lines, now with the values ahead:

Kd (FGFR3)	Kd (FGFR1)	Kd (FGFR4)	IC50 [1]	IC50 [2]	Kd (FGFR2)	Kd (FGFR3 (V555M))	Compound
23 nM	13 nM	110 nM	40 nM	49 nM	6 nM	2 nM	CN1CCS(=O)(=Nc2ccc(Nc3ncc(Cl)c(-c4c[nH]c5ccccc45)n3)cc2)CC1 [Example 55, 5-Chloro-4-(1H-indol-3-yl)-N-[4-[(4-methyl-1-oxo-1,4-thiazinan-l-ylidene)amino]-phenyl]pyrimidin-2-amine]
62 nM	130 nM	510 nM	1450 nM	421 nM	120 nM	9.8 nM	CN(C)C/C=C/C(=O)Nc1ccc2c(ccn2-c2nc(Nc3ccc(N=S(C)(C)=O)cc3)ncc2Cl)c1 [Example 67, (E)-N-[1-[5-Chloro-2-[4-[[dimethyl(oxo)-λ^6-sulfanylidene]amino]anilino]-pyrimidin-4-yl]indol-5-yl]-4-(dimethylamino)but-2-enamide]
14 nM	33 nM	160 nM	14 nM	82 nM	28 nM	3.8 nM	C=CC(=O)Nc1ccc2c(ccn2-c2nc(Nc3ccc(N=S4(=O)CCN(C)CC4)cc3)ncc2Cl)c1 [Example 69, N-[1-[5-Chloro-2-[4-[(4-methyl-1-oxo-1,4-thiazinan-1-ylidene)amino]anilino]pyrimidin-4-yl]indol-5-yl]prop-2-enamide]
41 nM	140 nM	560 nM	9 nM	713 nM	77 nM	20 nM	C=CC(=O)Nc1ccc2c(ccn2-c2nc(Nc3ccc(S(C)(=N)=O)cc3)ncc2C)c1 (stereo not shown) [Example 74, N-[1-[5-Methyl-2-[4-(methylsulfonimidoyl)anilino]-pyrimidin-4-yl]indol-5-yl]prop-2-enamide]
130 nM	160 nM	2400 nM	–	–	130 nM	16 nM	CS(C)(=O)=Nc1ccc(Nc2ncc(Cl)c(-n3ncc4cc(N)ccc43)n2)cc1 [Example 87, 1-[5-Chloro-2-[4-[[dimethyl(oxo)-λ^6-sulfanylidene]amino]anilino]-pyrimidin-4-yl]indazol-5-amine]
70 nM	76 nM	510 nM	–	–	50 nM	7.5 nM	C=CC(=O)Nc1ccc2c(-c3nc(Nc4ccc(S(C)(=N)=O)cc4)ncc3Cl)c[nH]c2c1 (stereo not shown) [Example 89, N-[3-[5-chloro-2-[4-(methylsulfonimidoyl)anilino]pyrimidin-4-yl]-1H-indol-6-yl]prop-2-enamide]
41 nM	47 nM	360 nM	71 nM	81 nM	59 nM	4 nM	C=CC(=O)Nc1ccc2c(-c3nc(Nc4ccc(S(=N)(=O)C5CC5)cc4)ncc3Cl)c[nH]c2c1 (stereo not shown) [Example 90, N-[3-[5-Chloro-2-[4-(cyclopropylsulfonimidoyl)anilino]pyrimidin-4-yl]-1H-indol-6-yl]prop-2-enamide]
48 nM	19 nM	130 nM	19 nM	48 nM	24 nM	2 nM	C=CC(=O)Nc1cccc2c(-c3nc(Nc4ccc(S(C)(=N)=O)cc4)ncc3Cl)c[nH]c12 (stereo not shown) [Example 91, N-[3-[5-chloro-2-[4-(methylsulfonimidoyl)anilino]pyrimidin-4-yl]-1H-indol-7-yl]prop-2-enamide]
